Assay results published in PubChem BioAssay (NCI).
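Five concentrations, 48 hours, 96-well plates. TGI: total growth inhibition.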

Key:
Assay in all cases: NCI tumour cell line growth inhibition, 48 h
SW-620 colon = system: SW-620 colon
MALME-3M melanoma = system: MALME-3M melanoma
NCI-H23 lung = system: NCI-H23 lung
ACHN renal = system: ACHN renal
U251 CNS = system: U251 CNS
OVCAR-3 ovarian = system: OVCAR-3 ovarian
OVCAR-8 ovarian = system: OVCAR-8 ovarian
786-0 renal = system: 786-0 renal
SNB-78 CNS = system: SNB-78 CNS
K-562 leukemia = system: K-562 leukemia
SK-MEL-5 melanoma = system: SK-MEL-5 melanoma
NCI-H460 lung = system: NCI-H460 lung
HL-60(TB) leukemia = system: HL-60(TB) leukemia
HT29 colon = system: HT29 colon
UO-31 renal = system: UO-31 renal
CAKI-1 renal = system: CAKI-1 renal
HCT-116 colon = system: HCT-116 colon
HCT-15 colon = system: HCT-15 colon
OVCAR-5 ovarian = system: OVCAR-5 ovarian
HOP-18 NSCLC = system: HOP-18 NSCLC
DMS 114 small cell lung = system: DMS 114 small cell lung
SF-268 CNS = system: SF-268 CNS
A498 renal = system: A498 renal
KM20L2 colon = system: KM20L2 colon
HOP-62 NSCLC = system: HOP-62 NSCLC
A549 NSCLC = system: A549 NSCLC
SNB-19 CNS = system: SNB-19 CNS
UACC-257 melanoma = system: UACC-257 melanoma
CCRF-CEM leukemia = system: CCRF-CEM leukemia
DMS 273 small cell lung = system: DMS 273 small cell lung
TK-10 renal = system: TK-10 renal
RPMI-8226 leukemia = system: RPMI-8226 leukemia
M19-MEL melanoma = system: M19-MEL melanoma
NCI-H226 lung = system: NCI-H226 lung
SK-MEL-2 melanoma = system: SK-MEL-2 melanoma
HCC-2998 colon = system: HCC-2998 colon
SF-539 CNS = system: SF-539 CNS
RXF-631 renal = system: RXF-631 renal
LOX IMVI melanoma = system: LOX IMVI melanoma
SK-OV-3 ovarian = system: SK-OV-3 ovarian
M14 melanoma = system: M14 melanoma
KM12 colon = system: KM12 colon
HOP-92 NSCLC = system: HOP-92 NSCLC
NCI-H522 lung = system: NCI-H522 lung
DLD-1 colon = system: DLD-1 colon
MOLT-4 leukemia = system: MOLT-4 leukemia
EKVX NSCLC = system: EKVX NSCLC
OVCAR-4 ovarian = system: OVCAR-4 ovarian
SK-MEL-28 melanoma = system: SK-MEL-28 melanoma
SNB-75 CNS = system: SNB-75 CNS
SF-295 CNS = system: SF-295 CNS
LXFL 529 NSCLC = system: LXFL 529 NSCLC
IGROV1 ovarian = system: IGROV1 ovarian
UACC-62 melanoma = system: UACC-62 melanoma
RXF 393 renal = system: RXF 393 renal
COLO 205 colon = system: COLO 205 colon
SN12C renal = system: SN12C renal

`O=c1[nH]c(=O)n([C@@H]2C[C@H](CO)[C@H](O)C2)cc1/C=C/Br` gave a TGI (SW-620 colon) of over 100 µM, a TGI (MALME-3M melanoma) of over 100 µM and a TGI (NCI-H23 lung) of over 100 µM. It also gave a TGI (ACHN renal) of over 100 µM, a TGI (U251 CNS) of over 100 µM and a TGI (OVCAR-3 ovarian) of over 100 µM. It also gave a TGI (OVCAR-8 ovarian) of over 100 µM, a TGI (786-0 renal) of over 100 µM and a TGI (SNB-78 CNS) of over 100 µM. For the same compound, the TGI (K-562 leukemia) was over 100 µM, the TGI (SK-MEL-5 melanoma) was over 100 µM and the TGI (NCI-H460 lung) was over 100 µM. For the same compound, the TGI (HL-60(TB) leukemia) was over 100 µM, the TGI (HT29 colon) was over 100 µM and the TGI (UO-31 renal) was over 100 µM. For the same compound, the TGI (CAKI-1 renal) was over 100 µM, the TGI (HCT-116 colon) was over 100 µM and the TGI (HCT-15 colon) was over 100 µM. It also gave a TGI (OVCAR-5 ovarian) of over 100 µM, a TGI (HOP-18 NSCLC) of over 100 µM and a TGI (DMS 114 small cell lung) of over 100 µM. It also gave a TGI (SF-268 CNS) of over 100 µM, a TGI (A498 renal) of over 100 µM and a TGI (KM20L2 colon) of over 100 µM. It also gave a TGI (HOP-62 NSCLC) of over 100 µM, a TGI (A549 NSCLC) of over 100 µM and a TGI (SNB-19 CNS) of over 100 µM. It also gave a TGI (UACC-257 melanoma) of over 100 µM, a TGI (CCRF-CEM leukemia) of over 100 µM and a TGI (DMS 273 small cell lung) of over 100 µM. It also gave a TGI (TK-10 renal) of over 100 µM, a TGI (RPMI-8226 leukemia) of over 100 µM and a TGI (M19-MEL melanoma) of over 100 µM. For the same compound, the TGI (NCI-H226 lung) was over 100 µM, the TGI (SK-MEL-2 melanoma) was over 100 µM and the TGI (HCC-2998 colon) was over 100 µM. For the same compound, the TGI (SF-539 CNS) was over 100 µM, the TGI (RXF-631 renal) was over 100 µM and the TGI (LOX IMVI melanoma) was over 100 µM. For the same compound, the TGI (SK-OV-3 ovarian) was over 100 µM, the TGI (M14 melanoma) was over 100 µM and the TGI (KM12 colon) was over 100 µM. The TGI (HOP-92 NSCLC) was over 100 µM, the TGI (NCI-H522 lung) was over 100 µM and the TGI (DLD-1 colon) was over 100 µM. The TGI (MOLT-4 leukemia) was over 100 µM, the TGI (EKVX NSCLC) was over 100 µM and the TGI (OVCAR-4 ovarian) was over 100 µM. It also gave a TGI (SK-MEL-28 melanoma) of over 100 µM, a TGI (SNB-75 CNS) of over 100 µM and a TGI (SF-295 CNS) of over 100 µM. For the same compound, the TGI (LXFL 529 NSCLC) was over 100 µM, the TGI (IGROV1 ovarian) was over 100 µM and the TGI (UACC-62 melanoma) was over 100 µM.

Compound `COC(=O)C1C(O)CC(c2ccccn2)N(Cc2ccccc2)C1c1ccccn1` (stereo unspecified) has a TGI (SW-620 colon) of over 100 µM, a TGI (MALME-3M melanoma) of over 100 µM and a TGI (NCI-H23 lung) of over 100 µM. It also gave a TGI (ACHN renal) of over 100 µM, a TGI (U251 CNS) of over 100 µM and a TGI (OVCAR-3 ovarian) of over 100 µM. For the same compound, the TGI (OVCAR-8 ovarian) was over 100 µM, the TGI (786-0 renal) was over 100 µM and the TGI (SNB-78 CNS) was over 100 µM. For the same compound, the TGI (K-562 leukemia) was over 100 µM, the TGI (SK-MEL-5 melanoma) was over 100 µM and the TGI (RXF 393 renal) was over 100 µM. It also gave a TGI (NCI-H460 lung) of over 100 µM, a TGI (HL-60(TB) leukemia) of 65.1 µM and a TGI (HT29 colon) of over 100 µM. For the same compound, the TGI (UO-31 renal) was over 100 µM, the TGI (CAKI-1 renal) was over 100 µM and the TGI (HCT-116 colon) was over 100 µM. For the same compound, the TGI (HCT-15 colon) was over 100 µM, the TGI (OVCAR-5 ovarian) was over 100 µM and the TGI (COLO 205 colon) was over 100 µM. The TGI (HOP-18 NSCLC) was over 100 µM, the TGI (DMS 114 small cell lung) was over 100 µM and the TGI (SF-268 CNS) was over 100 µM. The TGI (A498 renal) was over 100 µM, the TGI (KM20L2 colon) was over 100 µM and the TGI (HOP-62 NSCLC) was over 100 µM. The TGI (A549 NSCLC) was over 100 µM, the TGI (SNB-19 CNS) was over 100 µM and the TGI (UACC-257 melanoma) was over 100 µM. It also gave a TGI (CCRF-CEM leukemia) of over 100 µM, a TGI (DMS 273 small cell lung) of over 100 µM and a TGI (TK-10 renal) of over 100 µM. It also gave a TGI (RPMI-8226 leukemia) of over 100 µM, a TGI (M19-MEL melanoma) of over 100 µM and a TGI (NCI-H226 lung) of over 100 µM. It also gave a TGI (SK-MEL-2 melanoma) of over 100 µM, a TGI (HCC-2998 colon) of over 100 µM and a TGI (SF-539 CNS) of over 100 µM. It also gave a TGI (RXF-631 renal) of over 100 µM, a TGI (SN12C renal) of over 100 µM and a TGI (LOX IMVI melanoma) of over 100 µM. The TGI (SK-OV-3 ovarian) was over 100 µM, the TGI (M14 melanoma) was over 100 µM and the TGI (KM12 colon) was over 100 µM. It also gave a TGI (HOP-92 NSCLC) of over 100 µM, a TGI (NCI-H522 lung) of over 100 µM and a TGI (DLD-1 colon) of over 100 µM. The TGI (MOLT-4 leukemia) was over 100 µM, the TGI (EKVX NSCLC) was over 100 µM and the TGI (OVCAR-4 ovarian) was over 100 µM. It also gave a TGI (SK-MEL-28 melanoma) of over 100 µM, a TGI (SNB-75 CNS) of over 100 µM and a TGI (SF-295 CNS) of over 100 µM. The TGI (LXFL 529 NSCLC) was over 100 µM, the TGI (IGROV1 ovarian) was over 100 µM and the TGI (UACC-62 melanoma) was over 100 µM.
